Results reported in patent publication US6770671B2, “7,8-dihydro-xanthenone-8-carboxylic acid derivative and novel microbe producing the same” (Korea Research Institute of Bioscience and Biotechnology, priority 2000, dated 2004).
“And” between values parts separate entries of the source, which are not always exact repeats. Equal values may be shown once. “Also recorded” adds a separate entry of the source.

Legend:
B16-BL6 melanoma cells = assay: In vivo tumor growth, B16-BL6 melanoma in C57BL/6 mice; parameters: species or system mouse; conditions: for inhibition of tumor growth: B16-BL6 in C57BL/6 mice
Method: (§1) Onto the back of C57BL/6 mice 4-5 weeks old, 10^6 B16-BL6 melanoma cells were subcutaneously transplanted. When the tumors were grown to sizes of 100-250 mm^3, the mice were randomly mixed and divided into 4 groups, each of 6 members, to which drugs were then administered. For Group 1, only a solvent was used, while the novel compound ACRL-B4 represented by the chemical formula 1 was intraperitoneally injected every other day at doses of 30 mg/kg, 15 mg/kg and 5 mg/kg to Groups 2 to 4, respectively, with monitoring of tumor sizes and body weights. The test compound was dissolved in a solvent mixture of 85% physiological saline, 5% DMSO (dimethylsulfoxide) and 10% cremophore.
For the calculation of cancer sizes, the mathematical formula 1 was used, and since the transplantation of cancer cells, changes in tumor size had been measured and the results are depicted in FIG. 3.

[1] = tested on: angiogenesis in chorioallantoic membrane; assay: Chorioallantoic membrane (CAM) assay using fertilized eggs; format: in vivo; conditions: for Inhibition ratio (%): percentage of positive eggs to total tested eggs
Method: <4-2> Inhibitory Effect on in vivo Angiogenesis Chorioallantoic membrane assay using fertilized eggs was used to examine whether the novel compound ACRL-B4 of the present invention is effective to inhibit angiogenesis in vivo.
After being grown at 37° C. for three days at a humidity of 90% in an incubator, fertilized eggs were deprived of 2 ml of albumin through a 18-gauge subcutaneous injection needle. On the fourth day, a circular window was cut into each of the eggs and the outer layers of their chorioallantoic membranes were removed. Separately, pieces of thermanox coverslip were coated with the ACRL-B4 compound dissolved in ethanol at the concentration of 1 and 5 μg/coverslip and the ethanol was evaporated. On day 4.5, the thermanox coverslip were placed on the embryonic chorioallantoic membranes of the embryos. After 2 days incubation at 37° C., 1-2 ml of 10% fat emulsion was injected into chorioallantois and observed blood vessel formation during an embryogenesis or development procedure under a microscope. As a positive control, 1 μg/egg of retinoic acid was used and a negative control was non-treated coverslip.

[2] = tested on: VEGF-induced proliferation of HUVEC; assay: VEGF-induced HUVEC proliferation (acid phosphatase assay); format: cell-based, human; conditions: VEGF 20 ng/ml; 0.004-10 μg/ml compound; 48 hours; FIG. 1
Description: (§2) To determine the inhibitory effect of the compound represented by the chemical formula 1 on angiogenesis, endothelial cells were used as a model on the basis that they are migrated and differentiated into capillary tubes under a specific culture condition, that is, in the presence of angiogenic factors such as VEGF, bFGF, etc. Stimulation by angiogenic factors triggers complex, intracellular reactions of endothelial cells and causes them to undergo cell proliferation and differentiation, resulting in the induction of angiogenesis. […] In gelatin-coated 96-well plates, HUVEC cultured in an M199 medium (20% FBS, 3 ng/ml bFGF, 100 μg/ml heparin) was plated at a density of 10^4 cells/well and cultured for 24 hours under the condition of serum starvation. Thereafter, VEGF and bFGF were independently added at a concentration of 20 ng/ml per well and ACRL-B4 was also added at concentrations of 0.004, 0.02, 0.08, 0.4, 2 and 10 μg/ml while control wells were treated with angiogenic factors only. After 48 hours incubation, the inhibition of HUVEC proliferation by the ACRL-B4 was quantitatively analyzed by an acid phosphatase assay.

[3] = tested on: bFGF-induced proliferation of HUVEC; assay: bFGF-induced HUVEC proliferation (acid phosphatase assay); format: cell-based, human; conditions: bFGF 20 ng/ml; 0.004-10 μg/ml compound; 48 hours; FIG. 1
Description: as §2

[4] = Acute toxicity test on rat upon oral administration; conditions: in vivo, 500 mg/kg
Method: Using specific pathogen-free (SPF) SD rats, which were six weeks old, the 7,8-dihydro-xanthenone-8-carboxylic acid derivative of the present invention were tested for acute toxicity.
Suspensions of the compound of the present invention in 0.5% methyl cellulose were orally administered once at a dose of 500 mg/kg/15 ml to the rats, which were grouped in threes. […] An autopsy was made of the rats with the naked eye to observe whether their abdominal and thoracic organs were damaged.

[5] = tested on: Lewis lung carcinoma 3LL cells; assay: In vivo tumor growth, 3LL Lewis lung carcinoma in C57BL/6 mice; parameters: species or system mouse; conditions: for inhibition of tumor growth: 3LL in C57BL/6 mice
Method: as §1, with “Into” for “Onto”, “backs” for “back”, “3LL cancer” for “B16-BL6 melanoma”, “cells (Korean Collection for Type Culture at Korea Research Institute of Bioscience and Biotechnology)” for “cells”, “were” for “were then”, “under the” for “with”
Tumor sizes were calculated according to the following mathematical formula 1, and since the transplantation of cancer cells, changes in tumor size had been measured and the results are depicted in FIG. 2. [formula]

[6] = tested on: smooth muscle myosin light chain kinase; conditions: Nakanishi et al., J. Antibiotics 1993; cited from earlier work
protein kinase C = conditions: Nakanishi et al., J. Antibiotics 1993; cited from earlier work

SMILES: COC(=O)C1c2c(oc3cc(CO)cc(O)c3c2=O)C=CC1O (stereo not shown) [ACRL-B4, 7,8-dihydro-1,7-dihydroxy-3-hydroxymethyl-xanthenone-8-carboxylic acid methyl ester]
- inhibition of tumor growth (B16-BL6 melanoma cells; 5 mg/kg i.p. every other day): 40%
- inhibition of tumor growth (B16-BL6 melanoma cells; 15 mg/kg i.p. every other day): 50%
- inhibition of tumor growth (B16-BL6 melanoma cells; 30 mg/kg i.p. every other day): 65%
- side effects / body weight (B16-BL6 melanoma cells; 5-30 mg/kg i.p. every other day, B16-BL6-bearing C57BL/6 mice): did not exhibit toxic effects such as weight loss; also recorded: without causing side effects such as loss of body weight
- No. of egg showing anti-angiogenesis ([1]; 1 μg/egg): 10
- Inhibition ratio (%) ([1]; 1 μg/egg): 71% and 71.4%
- No. of egg showing anti-angiogenesis ([1]; 5 μg/egg): 9
- Inhibition ratio (%) ([1]; 5 μg/egg): 90%
- inhibition of VEGF-induced HUVEC proliferation [2]: specifically inhibit the VEGF-induced proliferation of HUVEC; also recorded: potent inhibitory activity against the proliferation of HUVEC; also recorded: inhibit the HUVEC proliferation induced by angiogenic factors, especially VEGF
- inhibition of bFGF-induced HUVEC proliferation [3]: inhibit the HUVEC proliferation induced by angiogenic factors
- LD50 ([4]; oral, single dose, SD rats, read-out: lethal dose (LD50)): ≥ 500 mg/kg
- death and clinical symptoms ([4]; po): Neither sudden death nor noticeable clinical symptoms were detected
- toxicity signs (weight change, serological tests, serobiochemical tests, corpse examination) ([4]; po): no toxicity signs were observed
- inhibition of tumor growth ([5]; 5 mg/kg i.p. every other day): 40%
- inhibition of tumor growth ([5]; 15 mg/kg i.p. every other day): 60%
- inhibition of tumor growth ([5]; 30 mg/kg i.p. every other day): 80%
- side effects / body weight ([5]; 5-30 mg/kg i.p. every other day, 3LL-bearing C57BL/6 mice): did not exhibit toxic effects such as weight loss; also recorded: without causing side effects such as loss of body weight

SMILES: COC(=O)C12OC1C=Cc1oc3cc(CO)cc(O)c3c(=O)c12 (stereo not shown) [MS-347a]
- inhibition of smooth muscle myosin light chain kinase [6]: inhibitory activity against smooth muscle myosin light chain kinase
- inhibition of protein kinase C (protein kinase C): inhibitory activity

SMILES: CC1=C(/C=C/C(C)=C/C=C/C(C)=C/C(=O)O)C(C)(C)CCC1 [Positive control, retinoic acid, reference compound]
- No. of egg showing anti-angiogenesis ([1]; 1 μg/egg): 6
- Inhibition ratio (%) ([1]; 1 μg/egg): 75%

SMILES: COC(=O)c1c(O)ccc2oc3cc(CO)cc(O)c3c(=O)c12 [sydowinin B]
- inhibition of smooth muscle myosin light chain kinase [6]: inhibitor of smooth muscle myosin light chain kinase
